Test results as given in patent US11959096B2, “Methods for selective inhibition of pluripotent stem cells” (THE MEDICAL COLLEGE OF WISCONSIN, INC., priority 2014, dated 2024).
Each block holds one molecule with its values, some of them ahead of it.

Experiments:
[1] = system: PAX6 positive neural progenitor cells; assay type: cell-based; details: 72 hours continuous STF-31 plus exogenous NA
Description: Data expressed as mean+S.D. (n=4); p<0.05, **p<0.01, ***p<0.001. […] Data expressed as mean+S.D. (n=4), *p<0.05, **p<0.01, ***p<0.001.

hiPSC (DF6-9-9T) [2] = experiment: SYTOX Green cell viability assay; assay type: cell-based, human; details: 72 hours treatment; 2.5 μM STF-31, 30 μM WZB117, 20 μM PluriSIn
Experimental: (§1) In Vitro Toxicity Assays: Treatment with small molecules or glucose deprivation was initiated in hESC or hiPSC at 24 and 96 h post-plating and in vitro toxicity assays were performed at specified treatment endpoints 24-96 hours after treatment initiation. […] Neutral red assays for cell viability were performed as previously described. In vitro cell death was determined using SYTOX® Green nucleic acid stain (Life Technologies). Briefly, cells were incubated in 5 μM SYTOX® Green for 30 minutes at 37° C. in a humidified cell incubator with 5% CO2. Percent cell viability was determined by normalizing to replicate cells incubated with 120 μM digitonin (Sigma-Aldrich) and 5 μM SYTOX® Green. Imaging of cell viability was performed using Live/Dead® Viability/Cytotoxicity Kit, for mammalian cells (Life Technologies). Cells were stained for 20 minutes at room temperature with 4 μM Calcein AM to detect viable cells and 2 μM Ethidium Homodimer 1 to detect cells with compromised membranes. Representative images of alterations in cell morphology were acquired on confluent hPSC 24-72 hours after treatment initiation. Imaging was performed with a Nikon Ti-U inverted microscope.

hiPSC [3] = experiment: Live/dead staining (calcein AM / ethidium homodimer-1); assay type: cell-based, human; details: 72 hours, confluent; 2.5 μM STF-31, 30 μM WZB117, 20 μM PluriSIn
Experimental: as §1

hiPSC (DF6-9-9T) [4] = experiment: Neutral red cell viability assay in hiPSC; assay type: cell-based, human; details: for elimination of hiPSC: 24 hour treatment, sub-confluent hiPSC; for toxicity: 72 hours
Experimental: Neutral red assays for cell viability were performed as previously described. In vitro cell death was determined using SYTOX® Green nucleic acid stain (Life Technologies). Briefly, cells were incubated in 5 μM SYTOX® Green for 30 minutes at 37° C. in a humidified cell incubator with 5% CO2. […] Imaging of cell viability was performed using Live/Dead® Viability/Cytotoxicity Kit, for mammalian cells (Life Technologies). Cells were stained for 20 minutes at room temperature with 4 μM Calcein AM to detect viable cells and 2 μM Ethidium Homodimer 1 to detect cells with compromised membranes. […] Imaging was performed with a Nikon Ti-U inverted microscope.

[5] = system: confluent hiPSC (DF6-9-9T); experiment: Bright field imaging of cell morphology; assay type: cell-based, human; details: 72 hours, 2.5 μM STF-31, 30 μM WZB117, 20 μM PluriSIn
Experimental: as §1

confluent hiPSC = experiment: Colony formation assay (alkaline phosphatase staining); assay type: cell-based, human; details: 24 hour pulse, cells passaged, cultured 6 days
Experimental: The first iteration was adapted from previously described method, after 24 hours of treatment, hiPSC were detached with Accutase (StemCell Technologies), re-suspended in E8, passed though 12×75 mm tube with cell strainer cap (Falcon), and plated at 5e4 live cells per 2 cm^2. Media were changed every 48 hours and cells were cultured for six days, at which time staining for alkaline phosphatase was performed with leukocyte alkaline phosphatase kit (Sigma-Aldrich) as described and plates were visually inspected for phosphatase-positive colonies. This strategy represents the most common implementation of the colony formation assay. However, concerns regarding the cell death normally encountered during passaging prompted another approach for stricter assessment. In the second iteration, cells were treated for 24 hours, washed twice with 0.5 mL D-PBS, and media refreshed with E8. Thereafter, media were replaced daily for six days at which point staining for alkaline phosphatase activity was performed. […] Elimination of hiPSC from co-cultures with differentiated cells was performed with human fibroblasts and day 10 cardiomyocytes derived from hiPSC. hiPSC (DF6-9-9T) were plated at concentrations ranging from 100-10,000 live cells per well with human fibroblasts (1.75e5 cells) or day 10 differentiated cardiomyocytes (3.75e5 cells) in E8 and Y-27632 per 9.6 cm^2. […] Six days after plating, staining for alkaline phosphatase activity was performed. […] Imaging of wells was performed with a Sony Cyber-shot DSC-TX30 and individual colonies with a Nikon stereoscope.

hiPSCs = experiment: Cell viability of hiPSCs treated with FK866; assay type: cell-based, human; details: up to 72 hours
Experimental: FIG. 10 presents data regarding FK866 toxicity on human pluripotent stem cells. […] Cell viability data is presented for hiPSCs treated with FK866 for up to 72 hours. […] (B) Cell viability of human pluripotent stem cells 72 hours after treatment initiation with FK866. Cells were treated with a range of concentrations (1 nM to 10 μM) either continuously or for 24 hour pulse.
FIG. 10 presents cell viability data for hiPSCs treated with FK866 (FIG. 9B) for up to 72 hours. […] Therefore, an effective strategy for selectively eliminating pluripotent stem cells is to deplete NAD^+ levels using a NAMPT inhibitor. […] Thus, these compounds will be useful for selectively eliminating tumorigenic cells in cells prepared for transplantation, independent of whether teratoma-causing cells in differentiated cultures are pluripotent or comprise one or more differentiated phenotypes.

hiPSC [6] = experiment: Extracellular flux analysis (ECAR, OCR); assay type: cell-based, human
Experimental: Extracellular Flux Analysis: hiPSC were plated at 6e4 cells per well on specialized microplate (Seahorse Bioscience) as previously described with several exceptions. Extracellular flux analysis was performed on hiPSC 48 hours post-plating using Seahorse Bioscience XF24 Analyzer. […] The microplate was equilibrated in non-CO2 incubator for 1.5 h, and analyzed for 16 h in Seahorse Bioscience XF24 Analyzer. Assay medium consists of basal E8 reagents with the following exceptions: basal DMEM F-12 without phenol red (Gibco), no sodium bicarbonate, and 2.5 mM GlutaMAX™ (Gibco) and 15 mM Hepes (Gibco). Assay medium was adjusted to pH 7.4 at 37° C. prior to use. Extracellular acidification rate (ECAR) and basal oxygen consumption rate (OCR) were collected approximately every 60 minutes. Treatments were normalized to baseline media control value and are represented as average of thee biological replicates.

sub-confluent hiPSC [7] = experiment: Glucose uptake assay ([3H]2-deoxyglucose); assay type: cell-based, human; details: 1 hour of treatment; 2.5 μM STF-31, 30 μM WZB117
Experimental: For 1 hour treatment, cells were placed in Krebs-Ringer Hepes (KRH) containing treatment at 37° C. in a humidified cell incubator with 5% CO2. For 15, 18, and 24 hour treatments, cells were treated in E8 medium for 14, 17, and 23 hours, respectively, at which point media was changed to KRH buffer containing specific treatment for 1 hour. After specified treatment time, glucose uptake was performed with 0.5 μCi [^3H]2-deoxyglucose for 5 min at 37° C. as previously described. Uptake data were normalized to protein concentration measured with Lowry method.

sub-confluent hiPSC [8] = experiment: Immunoblot analysis of p-AMPK, AMPK, cleaved caspase-3 and -9; assay type: cell-based, human
Experimental: Immunoblot Analysis: Non-adherent cells were collected by centrifugation, adherent cells were washed once with d-PBS and lysed in Laemmli buffer, combined with non-adherent cell pellet, and heated at 95° C. for 5 minutes. Protein concentration was measured using the Qubit protein assay (Life Technologies). 25 μg of total protein was separated by SDS-PAGE, transferred to nitrocellulose membrane (GE Healthcare Life Sciences) and blocked according to the manufacturer's instructions. Membranes were incubated overnight at 4° C. with the following dilutions of primary antibodies: rabbit anti-cleaved caspase-3 (1:500), rabbit anti-caspase-9 (1:1000), rabbit anti-phospho-AMPK (1:1000), and rabbit anti-AMPK (1:1,000) from Cell Signaling Technology, and mouse anti-GAPDH (1:10,000) from Life Technologies. Membranes were then incubated with secondary antibodies for 45 minutes at the following concentrations: donkey anti-mouse-horseradish peroxidase (1:5,000) and donkey anti-rabbit-horseradish peroxidase (1:7,000) from Jackson Immunoresearch Laboratories, Inc., followed by detection using enhanced chemiluminescence.

sub-confluent hiPSC [9] = experiment: Cleaved caspase-3/7 fluorescence based assay; assay type: cell-based, human; details: after initiation of treatment; 2.5 μM STF-31, 30 μM WZB117
[10] = sub-confluent cells, 30 μM WZB117, 20 μM PluriSIn

SMILES: O=C(O)c1cccnc1 [nicotinic acid]
rescue of cell death caused by STF-31 [1]: can be rescued

SMILES: O=C(NNc1ccccc1)c1ccncc1 [PluriSIn]
cell viability (SYTOX Green) (hiPSC (DF6-9-9T) [2]): no significant reduction
live/dead staining (hiPSC [3]): not toxic
elimination of hiPSC (hiPSC (DF6-9-9T) [4]; 30 μM WZB117, 20 μM PluriSIn): eliminated sub-confluent hiPSC
cell death with increasing concentrations (hiPSC (DF6-9-9T) [4]; confluent cells, 20-40 μM): did not result in cell death
toxicity (hiPSC (DF6-9-9T) [4]; confluent cells, 20 μM PluriSIn): did not induce significant toxicity
toxicity (hiPSC (DF6-9-9T) [4]; [10]): only effective on sub-confluent cells
morphology of hiPSC [5]: minimal alterations in the morphology
formation of alkaline phosphatase-positive colonies (confluent hiPSC): did not prevent colony growth

SMILES: O=C(/C=C/c1cccnc1)NCCCCC1CCN(C(=O)c2ccccc2)CC1 [FK866]
toxicity to human pluripotent stem cells relative to STF-31 (hiPSCs): toxic to human pluripotent stem cells at lower concentrations than STF-31

formation of alkaline phosphatase-positive colonies (confluent hiPSC): did not prevent colony growth
time at which cleaved caspase-3 and -9 are observed (sub-confluent hiPSC [8]; 2.5 μM STF-31, 30 μM WZB117): 12 h
time by which total levels of AMPK decreased (sub-confluent hiPSC [8]; 30 μM WZB117): ≤ 24 h
time at which p-AMPK is detected/increased (sub-confluent hiPSC [8]; post-treatment, 2.5 μM STF-31, 30 μM WZB117): 12 h
time of induction of caspase-3/7 activity (sub-confluent hiPSC [9]): 12 h
SMILES: O=C(Oc1cccc(F)c1OC(=O)c1cccc(O)c1)c1cccc(O)c1 [WZB117]
cell viability (SYTOX Green) (hiPSC (DF6-9-9T) [2]): no significant reduction
live/dead staining (hiPSC [3]): not toxic
elimination of hiPSC (hiPSC (DF6-9-9T) [4]; 30 μM WZB117, 20 μM PluriSIn): eliminated sub-confluent hiPSC
toxicity (hiPSC (DF6-9-9T) [4]; confluent cells treated 24 hours post-plating, 30 μM WZB117): toxic
toxicity (hiPSC (DF6-9-9T) [4]; confluent cells treated 96 hours post-plating, 30 μM WZB117): significantly less toxic
toxicity (hiPSC (DF6-9-9T) [4]; [10]): toxic
morphology of hiPSC [5]: morphological changes such as cell swelling
time before reductions in OCR (hiPSC [6]; 2.5 μM STF-31, 30 μM WZB117): ≤ 8 h
effect on ECAR (hiPSC [6]; 30 μM WZB117): decrease in ECAR by the earliest timepoint measured
decrease in glucose uptake (sub-confluent hiPSC [7]): 20%

SMILES: NC(=O)c1cccnc1 [nicotinamide]
rescue of STF-31 mediated toxicity (hiPSC (DF6-9-9T) [4]; 10 and 100 μM nicotinamide, data not shown): failed to rescue
